Results reported in patent publication US8623871B2, “Substituted biaryl compounds for inflammation and immune-related uses” (Synta Pharmaceuticals Corp., priority 2006, dated 2014).
pIC50: −log10 of the molar value. Where a name gives a salt, the structure may show the parent alone.

system: IL-2 production; experiment: Inhibition of IL-2 production in PHA-activated Jurkat cells (ELISA); type: cell-based; details: Homo sapiens, 20 h, PHA 2.5 μg/mL, IL-2 ELISA
Description: Jurkat cells were placed in a 96 well plate (0.5 million cells per well in 1% FBS medium) then a test compound of this invention was added at different concentrations. After 10 minutes, the cells were activated with PHA (final concentration 2.5 μg/mL) and incubated for 20 hours at 37° C. under CO2. The final volume was 200 μL. Following incubation, the cells were centrifuged and the supernatants collected and stored at −70° C. prior to assaying for IL-2 production. A commercial ELISA kit (IL-2 Eli-pair, Diaclone Research, Besancon, France) was used to detect production of IL-2, from which dose response curves were obtained. The IC50 value was calculated as the concentration at which 50% of maximum IL-2 production after stimulation was inhibited versus a non-stimulation control.

Row | Compound | pIC50
1 | CC(=O)Nc1ccc(-c2cc(-c3ncco3)ccc2C)cc1 [Compound 1, N-(2′-Methyl-5′-oxazol-2-yl-biphenyl-4-yl)-acetamide] | < 6.30
2 | O=C(Nc1ccc(-c2cc(C(F)(F)F)ccc2Cl)cc1)C1CCNCC1 [Compound 129, N-(2′-chloro-5′-(trifluoromethyl)biphenyl-4-yl)piperidine-4-carboxamide] | < 6.00
3 | C=CCNCc1ccc(-c2cc(-c3ncco3)ccc2C)cc1 [Compound 136, N-((2′-methyl-5′-(oxazol-2-yl)biphenyl-4-yl)methyl)prop-2-en-1-amine] | < 6.00
4 | O=C(Nc1ccc(-c2cc(C(F)(F)F)ccc2Cl)cc1)C1CCCC1 [Compound 108, N-(2′-chloro-5′-(trifluoromethyl)biphenyl-4-yl)cyclopentanecarboxamide] | 7.30 to 7.70
5 | O=C(Nc1ccc(-c2cc(C(F)(F)F)ccc2Cl)cc1)C1CC1 [Compound 125, N-(2′-chloro-5′-(trifluoromethyl)biphenyl-4-yl)cyclopropanecarboxamide] | 6.30 to 7.00
6 | CCC(C(=O)Nc1ccc(-c2cc(-c3ncco3)ccc2C)cc1)N(C)C (centres unmarked) [Compound 9, 2-Dimethylamino-N-(2′-methyl-5′-oxazol-2-yl-biphenyl-4-yl)-butyramide Hydrochloride] | < 6.30
7 | CN1CCC(C(=O)Nc2ccc(-c3cc(C(F)(F)F)ccc3Cl)cc2)CC1 [Compound 133, N-(2′-chloro-5′-(trifluoromethyl)biphenyl-4-yl)-1-methylpiperidine-4-carboxamide] | < 6.00
8 | CC1CCCCC1C(=O)Nc1ccc(-c2cc(C(F)(F)F)ccc2Cl)cc1 (centres unmarked) [Compound 128, N-(2′-chloro-5′-(trifluoromethyl)biphenyl-4-yl)-2-methylcyclohexanecarboxamide] | 6.30 to 7.00
9 | O=C(Nc1ccc(-c2cc(C(F)(F)F)ccc2Cl)cc1)C1CC2C=CC1C2 (centres unmarked) [Compound 132, N-(2′-chloro-5′-(trifluoromethyl)biphenyl-4-yl)bicyclo[2.2.1]hept-5-ene-2-carboxamide] | < 6.30
10 | CCCCNc1ccc(-c2cc3c(cc2C)OCO3)cc1 [Compound 141, N-butyl-4-(6-methylbenzo[d][1,3]dioxol-5-yl)aniline] | 6.30 to 7.00
11 | O=C(Nc1ccc(-c2cc(C(F)(F)F)ccc2Cl)cc1)C1CCCCC1 [Compound 107, N-(2′-chloro-5′-(trifluoromethyl)biphenyl-4-yl)cyclohexanecarboxamide] | > 7.70
12 | CCC(=O)Nc1ccc(-c2cc(-c3ncco3)ccc2C)cc1 [Compound 2, N-(2′-Methyl-5′-oxazol-2-yl-biphenyl-4-yl)-propionamide] | 7.00 to 7.30
13 | Cc1ccc(-c2ncco2)cc1-c1ccc(NC(=O)C2CCCCN2C)cc1 (centres unmarked) [Compound 8, 1-Methyl-piperidine-2-carboxylic acid (2′-methyl-5′-oxazol-2-yl-biphenyl-4-yl)-amide] | 6.30 to 7.00
14 | Cc1ccc(-c2ncco2)cc1-c1ccc(NC(=O)/C=C/c2ccccc2)cc1 [Compound 48, N-(2′-Methyl-5′-oxazol-2-yl-biphenyl-4-yl)-3-phenyl-acrylamide] | 6.30 to 7.00
15 | Cc1ccc(-c2ncco2)cc1-c1ccc(NCCO)cc1 [Compound 145, 2-(2′-methyl-5′-(oxazol-2-yl)biphenyl-4-ylamino)ethanol] | < 6.00
16 | O=C(Nc1ccc(-c2cc(C(F)(F)F)ccc2Cl)cc1)C1CC2CCC1C2 (centres unmarked) [Compound 130, N-(2′-chloro-5′-(trifluoromethyl)biphenyl-4-yl)bicyclo[2.2.1]heptane-2-carboxamide] | 6.30 to 7.00
17 | Cc1ccc(-c2ncco2)cc1-c1ccc(NC(=O)CN)cc1 [Compound 11, 2-Amino-N-(2′-methyl-5′-oxazol-2-yl-biphenyl-4-yl)-acetamide] | < 6.00
18 | Cc1ccc(-c2ncco2)cc1-c1ccc(NC(=O)C(N)CC(C)C)cc1 (centres unmarked) [Compound 10, 2-Amino-4-methyl-pentanoic acid (2′-methyl-5′-oxazol-2-yl-biphenyl-4-yl)-amide] | < 6.30

Row | Compound | pIC50
19 | CCCCNc1ccc(-c2cc(C(=O)OC)ccc2C)cc1 [Compound 142, methyl 4′-(butylamino)-6-methylbiphenyl-3-carboxylate] | 6.30 to 7.00
20 | Cc1ccc(-c2ncco2)cc1-c1ccc(NC(=O)N2CCN(C)CC2)cc1 [Compound 146, 4-Methyl-piperazine-1-carboxylic acid (2′-methyl-5′-oxazol-2-yl-biphenyl-4-yl)-amide] | < 6.00
21 | CCCC(=O)Nc1ccc(-c2cc(-c3ncco3)ccc2C)cc1 [Compound 3, N-(2′-Methyl-5′-oxazol-2-yl-biphenyl-4-yl)-butyramide] | > 7.70
22 | Cc1ccc(-c2ncco2)cc1-c1ccc(NC(=S)Cc2ccc(F)cc2F)cc1 [Compound 124, 2-(2,4-Difluoro-phenyl)-N-(2′-methyl-5′-oxazol-2-yl-biphenyl-4-yl)-thioacetamide] | 7.00 to 7.30
23 | Cc1ccc(-c2ncco2)cc1-c1ccc(NC(=O)C(C)C)cc1 [Compound 4, N-(2′-Methyl-5′-oxazol-2-yl-biphenyl-4-yl)-isobutyramide] | > 7.70
24 | Cc1ccc(-c2ncco2)cc1-c1ccc(NC(=O)C2CCC2)cc1 [Compound 6, Cyclobutanecarboxylic acid (2′-methyl-5′-oxazol-2-yl-biphenyl-4-yl)-amide] | 7.30 to 7.70
25 | Cc1ccc(-c2ncco2)cc1-c1ccc(NC(=O)[C@@H](N)C(C)C)cc1 (stereo in doubt) [Compound 123, 2-Amino-3-methyl-N-(2′-methyl-5′-oxazol-2-yl-biphenyl-4-yl)-butyramide] | < 6.30
26 | Cc1ccc(-c2ncco2)cc1-c1ccc(NCC(C)C)cc1 [Compound 144, N-isobutyl-2′-methyl-5′-(oxazol-2-yl)biphenyl-4-amine] | 6.30 to 7.00
27 | O=C(Nc1ccc(-c2cc(C(F)(F)F)ccc2Cl)cc1)C1CCCN1 (centres unmarked) [Compound 126, N-(2′-chloro-5′-(trifluoromethyl)biphenyl-4-yl)pyrrolidine-2-carboxamide] | < 6.00
28 | CCCCNCc1ccc(-c2cc(-c3ncco3)ccc2C)cc1 [Compound 135, N-((2′-methyl-5′-(oxazol-2-yl)biphenyl-4-yl)methyl)butan-1-amine] | < 6.00
29 | Cc1ccc(-c2ncco2)cc1-c1ccc(NC(=O)C2CC2)cc1 [Compound 5, Cyclopropanecarboxylic acid (2′-methyl-5′-oxazol-2-yl-biphenyl-4-yl)-amide] | 7.00 to 7.30
30 | CCCNCc1ccc(-c2cc(-c3ncco3)ccc2C)cc1 [Compound 137, N-((2′-methyl-5′-(oxazol-2-yl)biphenyl-4-yl)methyl)propan-1-amine] | < 6.00
31 | Cc1ccc(-c2ncco2)cc1-c1ccc(NC(=O)Cc2ccc(Cl)cc2)cc1 [Compound 35, 2-(4-Chloro-phenyl)-N-(2′-methyl-5′-oxazol-2-yl-biphenyl-4-yl)-acetamide] | 6.30 to 7.00
32 | Cc1ccc(-c2ncco2)cc1-c1ccc(NC(=O)C2CCCCC2)cc1 [Compound 106, N-(2′-methyl-5′-(oxazol-2-yl)biphenyl-4-yl)cyclohexanecarboxamide] | > 7.70
33 | CCOC(=O)CNc1ccc(-c2cc(-c3ncco3)ccc2C)cc1 [Compound 147, ethyl 2-(2′-methyl-5′-(oxazol-2-yl)biphenyl-4-ylamino)acetate] | < 6.00
34 | CN1CCCC1C(=O)Nc1ccc(-c2cc(C(F)(F)F)ccc2Cl)cc1 (centres unmarked) [Compound 134, N-(2′-chloro-5′-(trifluoromethyl)biphenyl-4-yl)-1-methylpyrrolidine-2-carboxamide] | < 6.00
35 | O=C(Nc1ccc(-c2cc(C(F)(F)F)ccc2Cl)cc1)C1CC=CCC1 (centres unmarked) [Compound 127, N-(2′-chloro-5′-(trifluoromethyl)biphenyl-4-yl)cyclohex-3-enecarboxamide] | 7.00 to 7.30
